Values of other authors in publication PMC10166914, “GTN057, a komaroviquinone derivative, induced myeloma cells' death in vivo and inhibited c‐MET tyrosine kinase” (Cancer Medicine, 2023).

Tested on: MUM24 cells
Parameters: method as in PMID 28882484
Settings: read-out: IC50 antiproliferative activity; cited from earlier work

Q: Which IC50 does the source give for `COc1c(O)c2c(c(O)c1C(C)C)C(=O)CC1C(C)(C)CCC[C@]1(O)C2` (stereo partly shown) [GTN054] here?
A: The IC50 was 6.13 µM.
